Entries after “also recorded” stand apart in the source; their conditions may differ.
Experiments:
Aqueous solubility = assay type: physicochemical
[1] = Reaction of cyclic imines with N-acetyl-L-tyrosine methylamide (HPLC/LC-MS); settings: for reaction half-life (t1/2): 5 mM imine, 100 mM Ac-Tyr-NHMe; for reaction half-life (t1/2) / reactivity to tyrosine: PBS pH 7, 37° C.; for second-order rate constant: pseudo-first order conditions; for reactivity to tyrosine: in words, Ac-Tyr-NHMe
Procedure: The reaction was monitored using liquid chromatography/mass spectrometry (LC/MS).
(§1) Reactions were conducted under pseudo first order conditions with an excess of one reactant. The reduction in the concentration of the limiting reactant A was measured at various time points by HPLC analysis. Rates of imine 1 with N-Ac-Tyr-NMe, indole-3-butyric acid, and 1H-pyrrole-1-propionic acid and of imine 2 with N-Ac-Tyr-NMe were measured.
(§2) Reaction of imine 1 (5 mM) with (A) N-Ac-Tyr-NHMe (100 mM) or (B) indole-3-butyrate (100 mM) at indicated time points.
(§3) Reaction of (A) imine 1 (5 mM) with N-Ac-Tyr-NHMe (100 mM) at 37° C. or (B) at room temperature. (C) imine 2 (5 mM) with N-Ac-Tyr-NHMe (100 mM) at 37° C. (D) imine 1 (5 mM) with indole-3-butyrate (100 mM) (E) imine 1 (10 mM) with 1 mM 1H-pyrrole-1-propionate (F) iminium 6 (5 mM) with N-Ac-Tyr-NHMe (100 mM) at 37° C. at pH 7 (G) iminium 6 (5 mM) with N-Ac-Tyr-NHMe (100 mM) at 37° C. at pH 3 at indicated time points.
Several cyclic imines (5 mM) were incubated with a simple tyrosine analog N-acetyl-L-tyrosine methylamide (Ac-Tyr-NHMe) in PBS pH 7 at 37° C. (FIGS. 2-3). The reactivity was quantitated by UV integration on HPLC with liquid chromatography/mass spectrometry (LC/MS) confirmation of reaction product identity (FIG. 4). Under these pseudo-first order reaction conditions, reaction half-lives and second-order rate constants were determined.

[2] = Amino acid mimetic reactivity, LC/MS: indole (tryptophan mimic); settings: 100 mM, PBS pH 7, 37° C., 24 h
Procedure: (§4) Cyclic imine 1 was incubated with 100 mM compounds in PBS (pH 7) at 37° C. for 24 hours and then analyzed by LC/MS. (A) Compounds include β-mercaptoethanol, imidazole, isopropanol, n-butylamine, propionic acid, 3-methyl indole, and N-ethyl pyrrole (pyrrole-lysine). UV LC/MS traces for (B) β-mercaptoethanol, (C) 3-methyl indole, and (D) N-ethyl pyrrole. LR-ESI-MS: imine-thiol product m/z calc. for [M+H]^+ 231.1; found: 231.2. Imine-indole product m/z calc. for [M+H]^+: 284.2; found: 284.2. Imine-pyrrole product m/z calc. for |M+H|^+: 248.2; found: 248.2.
(§5) To assess the selectivity to other amino acids, we tested compounds mimicking amino acid side chain functional groups, including β-mercaptoethanol (cysteine), imidazole (histidine), isopropanol (serine/threonine), n-butylamine (lysine), propionic acid (aspartic acid/glutamic acid), 3-methyl indole (tryptophan), and N-ethyl pyrrole (pyrrole-lysine). […] Conjugation to thiols was expected based on previous reports (Minakawa et al. J. Org. Chem. 2008, 73(21), 8669-8672; Cavaca et al. Mol. 2022, 27(5), 1673).

[3] = Stability of cyclic imines in aqueous media (LC/MS); assay type: physicochemical; settings: 96-hours incubation in PBS, 0.1M HCl, 0.1M NaOH
Procedure: To validate the stability of cyclic imines as covalent warheads, imines 1-4 were evaluated by LC/MS after 96-hours incubation in PBS, 0.1M HCl, and 0.1M NaOH (Table 1).

[4] = target: T1, recombinant CBX8 chromodomain (ChD) (Homo sapiens, UniProt Q9HC52); test: Labeling of CBX8 chromodomain with imine 1 (mass spectrometry); assay type: binding; settings: 50 mM imine, 10 μM CBX8 ChD, PBS pH 7, 0.02% Tween 20, room temperature overnight
T1 construct: expected mass of CBX8 ChD 8792 Da
T1 sequence (Q9HC52 8-69 limits assumed): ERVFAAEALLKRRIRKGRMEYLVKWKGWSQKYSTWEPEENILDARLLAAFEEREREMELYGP
Procedure: (§6) To confirm reactivity and selectivity with a peptide context, imine 1 (50 mM) was incubated with the tyrosine-containing 8-mer peptide angiotensin II ([…]) (10 mM) (FIG. 10). The combined yield of mono-labeled and di-labeled angiotensin II was ~45% as quantified by LC/MS. Cyclic imine 1 (50 mM) was also incubated with a small protein (recombinant CBX8 chromodomain (ChD), which contains multiple tyrosines and tryptophans; 10 μM in PBS buffer (pH=7; 0.02% Tween 20)) at room temperature overnight. With overnight incubation, two to three additions of the imine were observed by mass spectrometry.

[5] = Amino acid mimetic reactivity, LC/MS: pyrrole (pyrrole-lysine mimic); settings: 100 mM, PBS pH 7, 37° C., 24 h
Procedure: as §4, §5

angiotensin II = test: Labeling of angiotensin II with imine 1 (LC/MS); settings: 50 mM imine 1, 10 mM angiotensin II, 16 hours
Procedure: UV trace of reaction mixture of compound 1 (cyclic imine 1) with angiotensin II. […] (Mono cyclic imine-angiotensin II conjugate peak at 2 min): calc. [M+H]^+: 1199.2, found [M+H]^+: 1199.3, [M+2H]^2+: 600.3, [M+3H]^3+: 400.6. (Di-cyclic imine-angiotensin II conjugate peak at 2.1 min): calc. [M+H]^+: 1351.2, found [M+H]^+: 1351.8, [M+2H]^2+: 676.4, [M+3H]^3+: 451.0. (Unmodified angiotensin II (8-mer) peak at 2.2 min): m/z calc. [M+H]^+: 1047.2, found [M+H]^+: 1047.2, [M+2H]^2+: 524., [M+3H]^3+: 350.
as §6

[6] = Effect of thiols on tyrosine labeling with imine 1; settings: 5 mM imine, 100 mM Tyr, 5 mM cysteine, vs control
Procedure: Cyclic imine 1 (5 mM) was incubated with 100 mM acetyl tyrosine methyl amide and 5 mM […] (in the presence of 5 mM TCEP). Reaction yield was quantified based on UV integrations of Mannich product at 4 h, 9 h, 17 h, 24 h, and 32 h. Imine consumption rate was quantified based on the UV integration of Mannich product at 4 h, 9 h, 17 h, 24 h, and 32 h.
Thiol addition to the imine is reversible, yet this reaction may limit the desired reactivity of imines to tyrosines in cellular contexts where glutathione concentrations can be 1-10 mM (Meister et al. J. Biol. Chem. 1988, 263(33), 17205-17208; Forman et al. Mol. Aspects Med. 2009, 30(1-2), 1). To evaluate this reversibility, the pre-formed thioaminal product of 1 with N-acetyl-cysteine methyl amide was treated with either glutathione (1 M) or Ac-Tyr-NHMe (100 mM). […] To evaluate potential effects of cellular thiols on tyrosine labeling rate, the cyclic imine-Tyr reaction (at 5 mM and 100 mM, respectively) was evaluated over time in the presence of cysteine (5 mM) (FIG. 9).

[7] = Reaction of imine 1 with 1H-pyrrole-1-propionate (pyrrole-Lys mimic)
Procedure: as §1, §3
We also tested 1 with N-ethyl pyrrole as a mimic of pyrrolated lysine, a lesser-known post-translational modification (Miyashita et al. Sci. Rep. 2014, 4, 5343; Chikazawa et al. J. Biol. Chem. 2020, 295(22), 7697-7709). […] Previous work with N-pyrrolyl alanine derivatives has shown fast and selective Pictet-Spengler reactions with aldehyde-containing biomolecules (Pomplun et al. Angew. Chemie Int. Ed. 2019, 58(11), 3542-3547).^50 Under conditions of 10 mM cyclic imine 1 with 1 mM 1H-pyrrole-1-propionate (as a soluble pyrrole-Lys mimic), we determined a second order rate constant of 5.9×10^−2 M^−1 s^−1 (FIGS. 3 and 5).

[8] = Reaction of imine 1 with indole-3-butyrate (tryptophan mimic)
Procedure: as §1, §2, §3

[9] = Amino acid mimetic reactivity, LC/MS: thiol (cysteine mimic); settings: 100 mM, PBS pH 7, 37° C., 24 h
Procedure: as §4, §5

[10] = Hydrolysis of aromatic ester imine in water / PBS; assay type: physicochemical

## Cc1c[nH]c2ccccc12 [3-methyl indole]
Aqueous solubility
  aqueous solubility: poor aqueous solubility

## O=C1C=NC2CCCCC2N1 (stereo not shown) [Compound 1]
[1]
  reaction half-life (t1/2): 8 ± 0.3 h
[1]; 37° C.
  second-order rate constant: 0.00024 M⁻¹ s⁻¹
[1]; R.T.
  second-order rate constant: 0.00015 M⁻¹ s⁻¹
[2]
  conjugate formation with 3-methyl indole: Stable conjugates; also recorded: multiple products
[3]
  stability (in words): stable under all conditions
[4]
  number of additions of the imine: two to three
[5]
  conjugate formation with N-ethyl pyrrole: Stable conjugates
Angiotensin II
  combined yield of mono-labeled and di-labeled angiotensin II: ~ 45%
[6]
  effect of cysteine on tyrosine-imine reaction rate: slightly slowed the reaction rate
[7]; 10 mM imine 1, 1 mM 1H-pyrrole-1-propionate
  second order rate constant: 0.059 M⁻¹ s⁻¹
[7]; 1H-pyrrole-1-propionate vs Tyr
  increase in rate constant relative to Tyr: ~ 200 fold
[8]; indole-3-butyrate vs tyrosine
  fold lower rate constant than to tyrosine: 2 fold
[8]; indole-3-butyrate, 37° C.
  second order rate constant (k2): 0.00011 M⁻¹ s⁻¹
[9]
  conjugate formation with β-mercaptoethanol: Stable conjugates

## O=C1C=NC2CCCCC2O1 (stereo not shown) [Compound 2]
[1]
  reaction half-life (t1/2): 0.667 h
[1]; 37° C.
  second-order rate constant: 0.0029 M⁻¹ s⁻¹
[1]; relative to imine 1, Ac-Tyr-NHMe
  increase in rate constant relative to 1: ~ 10 fold
[3]
  stability (in words): hydrolyzed under basic conditions

## O=c1cnc2ccccc2o1 [Compound 3]
[1]
  reactivity to tyrosine: did increase the rate of Mannich addition; also recorded: low intrinsic reactivity
[3]
  stability (in words): hydrolyzed under basic conditions; also recorded: unstable in PBS
[10]; PBS, pH 7, within an hour
  degraded at 1 h: 70%
[10]; water
  stability in water: stable in water

## Oc1cnc2ccccc2n1 [Compound 4]
[1]
  reactivity to tyrosine: unreactive
[3]
  stability (in words): stable under all conditions

## C#CCn1c(=O)cnc2ccccc21 [Compound 5]
[1]
  reactivity to tyrosine: unreactive

## C1=NCCc2ccccc21 [Compound 9]
[1]
  reactivity to tyrosine: limited

## CC1=NCCC1 [Compound 10]
[1]
  reactivity to tyrosine: no

Source: US20260327255A1, “LIGAND-DIRECTED COVALENT MODIFICATION OF AMINO ACID SIDE CHAINS USING CYCLIC IMINE MANNICH ELECTROPHILES” (Purdue Research Foundation, priority 2022, published 2026)
